In patent US10597388B2, “Pyridazinone herbicides” (FMC CORPORATION, priority 2014, dated 2020):

Legend:
Assay in all cases: Test D controlled growth environment herbicide test, pre- and postemergence
Type in all cases: in vivo
[1] = system: canarygrass (Phalaris minor)
In short: (§1)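 Species sown in silt loam and sprayed preemergence, or grown in peat-based medium to 2–18 cm (1- to 4-leaf stage) and sprayed postemergence, with compounds in non-phytotoxic solvent plus surfactant. Visual injury scored versus controls after 14–21 d in a controlled environment, 0 (no effect) to 100 (complete control).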

[2] = system: ryegrass, Italian (Italian ryegrass, Lolium multiflorum)
In short: as §1

[3] = system: bluegrass (annual bluegrass, Poa annua)
In short: as §1

kochia (Kochia scoparia) = system: kochia (Kochia scoparia)
In short: as §1

[4] = system: Russian thistle (Salsola kali)
In short: as §1

[5] = system: oilseed rape (Brassica napus)
In short: as §1

[6] = system: deadnettle (henbit deadnettle, Lamium amplexicaule)
In short: as §1

[7] = system: field violet (Viola arvensis)
In short: as §1

[8] = system: buckwheat, wild (wild buckwheat, Polygonum convolvulus)
In short: as §1

[9] = system: speedwell (bird's-eye speedwell, Veronica persica)
In short: as §1

[10] = system: galium (catchweed bedstraw, Galium aparine)
In short: as §1

[11] = system: barley, spring (spring barley, Hordeum vulgare)
In short: as §1

[12] = system: radish, wild (wild radish, Raphanus raphanistrum)
In short: as §1

[13] = Postemergence, 31 g ai/ha, scale 0 to 100 (0 no effect, 100 complete control)
[14] = Postemergence, 125 g ai/ha, visual rating on scale 0 (no effect) to 100 (complete control), 14 to 21 d
[15] = Postemergence, 250 g ai/ha, scale 0 to 100 (0 no effect, 100 complete control)
[16] = Preemergence, 62 g ai/ha, scale 0 to 100 (0 no effect, 100 complete control)
[17] = Preemergence, 125 g ai/ha, scale 0 to 100 (0 no effect, 100 complete control)
[18] = Preemergence, 250 g ai/ha, scale 0 to 100, 0 no effect, 100 complete control
[19] = postemergence, 62 g ai/ha, scale 0 to 100, 0 no effect, 100 complete control

Cc1cc2ccccc2c(-c2c(O)c(C)nn(C)c2=O)c1C [Compound 34]
Canarygrass plant response rating [1, 13]: 30
Plant response rating, Canarygrass [1, 14]: 75
Plant response rating, Canarygrass [1, 15]: 85
Plant response rating (scale of 0 to 100), Canarygrass ([1]; Preemergence, 31 g ai/ha): 20
Plant response rating, Canarygrass [1, 16]: 50
Plant response rating, Canarygrass [1, 17]: 90
Plant response rating, Canarygrass [1, 18]: 95
Plant response rating, Canarygrass [1, 19]: 65
Ryegrass, Italian plant response rating [2, 13]: 90
Plant response rating, Ryegrass, Italian [2, 14]: 95
Plant response rating, Ryegrass, Italian [2, 15]: 95
Plant response rating (scale of 0 to 100), Ryegrass, Italian ([2]; Preemergence, 31 g ai/ha): 75
Plant response rating, Ryegrass, Italian [2, 16]: 95
Plant response rating, Ryegrass, Italian [2, 17]: 100
Plant response rating, Ryegrass, Italian [2, 18]: 100
Plant response rating, Ryegrass, Italian [2, 19]: 95
Bluegrass plant response rating [3, 13]: 10
Plant response rating, Bluegrass [3, 14]: 15
Plant response rating, Bluegrass [3, 15]: 20
Plant response rating (scale of 0 to 100), Bluegrass ([3]; Preemergence, 31 g ai/ha): 0
Plant response rating, Bluegrass [3, 16]: 25
Plant response rating, Bluegrass [3, 17]: 50
Bluegrass plant response rating [3, 18]: 60
Plant response rating, Bluegrass [3, 19]: 15
Kochia plant response rating (kochia (Kochia scoparia); [13]): 60
Plant response rating, Kochia (kochia (Kochia scoparia); [14]): 85
Plant response rating, Kochia (kochia (Kochia scoparia); [15]): 95
Plant response rating (scale of 0 to 100), Kochia (kochia (Kochia scoparia); Preemergence, 31 g ai/ha): 25
Plant response rating, Kochia (kochia (Kochia scoparia); [16]): 10
Plant response rating, Kochia (kochia (Kochia scoparia); [17]): 15
Plant response rating, Kochia (kochia (Kochia scoparia); [18]): 50
Plant response rating, Kochia (kochia (Kochia scoparia); [19]): 85
Russian Thistle plant response rating [4, 13]: 70
Plant response rating, Russian Thistle [4, 14]: 80
Plant response rating, Russian Thistle [4, 15]: 85
Plant response rating (scale of 0 to 100), Russian Thistle ([4]; Preemergence, 31 g ai/ha): 0
Plant response rating, Russian Thistle [4, 16]: 0
Plant response rating, Russian Thistle [4, 17]: 10
Plant response rating, Russian Thistle [4, 18]: 15
Plant response rating, Russian Thistle [4, 19]: 80
Oilseed Rape plant response rating [5, 13]: 65
Plant response rating, Oilseed Rape [5, 14]: 75
Plant response rating, Oilseed Rape [5, 15]: 90
Plant response rating (scale of 0 to 100), Oilseed Rape ([5]; Preemergence, 31 g ai/ha): 10
Plant response rating, Oilseed Rape [5, 16]: 55
Plant response rating, Oilseed Rape [5, 17]: 50
Plant response rating, Oilseed Rape [5, 18]: 85
Plant response rating, Oilseed Rape [5, 19]: 70
Deadnettle plant response rating [6, 13]: 95
Plant response rating, Deadnettle [6, 14]: 100
Plant response rating, Deadnettle [6, 15]: 100
Plant response rating (scale of 0 to 100), Deadnettle ([6]; Preemergence, 31 g ai/ha): 0
Plant response rating, Deadnettle [6, 16]: 40
Plant response rating, Deadnettle [6, 17]: 50
Plant response rating, Deadnettle [6, 18]: 95
Plant response rating, Deadnettle [6, 19]: 100
Field Violet plant response rating [7, 13]: 75
Plant response rating, Field Violet [7, 14]: 95
Plant response rating, Field Violet [7, 15]: 95
Plant response rating (scale of 0 to 100), Field Violet ([7]; Preemergence, 31 g ai/ha): 15
Plant response rating, Field Violet [7, 16]: 25
Plant response rating, Field Violet [7, 17]: 75
Plant response rating, Field Violet [7, 18]: 95
Plant response rating, Field Violet [7, 19]: 100
Buckwheat, Wild plant response rating [8, 13]: 100
Plant response rating, Buckwheat, Wild [8, 14]: 100
Plant response rating, Buckwheat, Wild [8, 15]: 100
Plant response rating (scale of 0 to 100), Buckwheat, Wild ([8]; Preemergence, 31 g ai/ha): 0
Plant response rating, Buckwheat, Wild [8, 16]: 10
Plant response rating, Buckwheat, Wild [8, 17]: 0
Plant response rating, Buckwheat, Wild [8, 18]: 0
Plant response rating, Buckwheat, Wild [8, 19]: 100
Speedwell plant response rating [9, 13]: 65
Plant response rating, Speedwell [9, 14]: 100
Plant response rating, Speedwell [9, 15]: 100
Plant response rating (scale of 0 to 100), Speedwell ([9]; Preemergence, 31 g ai/ha): 100
Plant response rating, Speedwell [9, 16]: 100
Plant response rating, Speedwell [9, 17]: 100
Plant response rating, Speedwell [9, 18]: 100
Plant response rating, Speedwell [9, 19]: 75
Galium plant response rating [10, 13]: 95
Plant response rating, Galium [10, 14]: 100
Plant response rating, Galium [10, 15]: 100
Plant response rating (scale of 0 to 100), Galium ([10]; Preemergence, 31 g ai/ha): 0
Plant response rating, Galium [10, 16]: 35
Plant response rating, Galium [10, 17]: 80
Plant response rating, Galium [10, 18]: 85
Plant response rating, Galium [10, 19]: 100
Plant response rating, Barley, Spring [11, 13]: 0
Plant response rating, Barley, Spring [11, 14]: 0
Plant response rating, Barley, Spring [11, 15]: 5
Plant response rating (scale of 0 to 100), Barley, Spring ([11]; Preemergence, 31 g ai/ha): 0
Plant response rating, Barley, Spring [11, 16]: 0
Plant response rating, Barley, Spring [11, 17]: 0
Barley, Spring plant response rating [11, 18]: 20
Plant response rating, Barley, Spring [11, 19]: 0
Radish, Wild plant response rating [12, 13]: 65
Plant response rating, Radish, Wild [12, 14]: 90
Plant response rating, Radish, Wild [12, 15]: 95
Plant response rating (scale of 0 to 100), Radish, Wild ([12]; Preemergence, 31 g ai/ha): 0
Plant response rating, Radish, Wild [12, 16]: 0
Plant response rating, Radish, Wild [12, 17]: 60
Plant response rating, Radish, Wild [12, 18]: 60
Plant response rating, Radish, Wild [12, 19]: 85
